The target of test [1] is T1, human CB1 receptors (Homo sapiens, UniProt P21554).
T1 construct: expressed in transfected cells; host or cells: CHO cells
Description: functional cAMP assay, CHO cells expressing human CB1 receptors. It counts as cell-based. Here is the method: (§1) CHO cells expressing human CB1 or CB2 receptors are seeded 17-24 hours prior to the experiment 50.000 cells per well in a black 96 well plate with flat clear bottom (Corning Costar #3904) in DMEM (Invitrogen No. 31331), lx HT supplement, with 10% fetal calf serum and incubated at 5% CO2 and 37° C. in a humidified incubator. The growth medium was exchanged with Krebs Ringer Bicarbonate buffer with 1 mM IBMX and incubated at 30° C. for 30 min. Compounds were added to a final assay volume of 100 μl and incubated for 30 min at 30° C. Using the cAMP-Nano-TRF detection kit the assay (Roche Diagnostics) was stopped by the addition of 50 μl lysis reagent (Tris, NaCl, 1.5% Triton X100, 2.5% NP40, 10% NaN3) and 50 μl detection solutions (20 μM mAb Alexa700-cAMP 1:1, and 48 μM Ruthenium-2-AHA-cAMP) and shaken for 2 h at room temperature. The time-resolved energy transfer is measured by a TRF reader (Evotec Technologies GmbH), equipped with a ND:YAG laser as excitation source. The plate is measured twice with the excitation at 355 nm and at the emission with a delay of 100 ns and a gate of 100 ns, total exposure time 10 s at 730 (bandwidth 30 nm) or 645 nm (bandwidth 75 nm), respectively. The FRET signal is calculated as follows: FRET=T730-Alexa730-P(T645-B645) with P=Ru730-B730/Ru645-B645, where T730 is the test well measured at 730 nM, T645 is the test well measured at 645 nm, B730 and B645 are the buffer controls at 730 nm and 645 nm, respectively. cAMP content is determined from the function of a standard curve spanning from 10 μM to 0.13 nM cAMP.
(§2) EC50 values were determined using Activity Base analysis (ID Business Solution, Limited). The EC50 values for a wide range of cannabinoid agonists generated from this assay were in agreement with the values published in the scientific literature.

Test [2] deals with T2, human CB2 receptors (Homo sapiens, UniProt P34972).
T2 construct: expressed in transfected cells; host or cells: CHO cells
T2 sequence (P34972 whole entry): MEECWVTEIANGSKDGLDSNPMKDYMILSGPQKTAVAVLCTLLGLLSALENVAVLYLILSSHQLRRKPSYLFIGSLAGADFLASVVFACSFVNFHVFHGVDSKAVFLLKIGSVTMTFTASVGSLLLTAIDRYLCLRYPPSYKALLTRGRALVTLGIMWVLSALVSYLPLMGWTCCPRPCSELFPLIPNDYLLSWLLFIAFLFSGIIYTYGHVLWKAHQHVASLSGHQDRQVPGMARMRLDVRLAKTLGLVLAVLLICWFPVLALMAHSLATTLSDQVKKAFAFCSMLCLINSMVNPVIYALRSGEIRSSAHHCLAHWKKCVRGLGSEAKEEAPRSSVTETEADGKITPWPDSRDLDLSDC
In words: functional cAMP assay, CHO cells expressing human CB2 receptors. In kind it is cell-based. The protocol:
as §1, §2

Setting [3] is: human EC50, functional cAMP assay, CHO cells expressing human CB2, read-out: EC50:CB2.

Like-named read-outs stand apart in the source and are kept apart here.

T1 sequence (P21554 whole entry): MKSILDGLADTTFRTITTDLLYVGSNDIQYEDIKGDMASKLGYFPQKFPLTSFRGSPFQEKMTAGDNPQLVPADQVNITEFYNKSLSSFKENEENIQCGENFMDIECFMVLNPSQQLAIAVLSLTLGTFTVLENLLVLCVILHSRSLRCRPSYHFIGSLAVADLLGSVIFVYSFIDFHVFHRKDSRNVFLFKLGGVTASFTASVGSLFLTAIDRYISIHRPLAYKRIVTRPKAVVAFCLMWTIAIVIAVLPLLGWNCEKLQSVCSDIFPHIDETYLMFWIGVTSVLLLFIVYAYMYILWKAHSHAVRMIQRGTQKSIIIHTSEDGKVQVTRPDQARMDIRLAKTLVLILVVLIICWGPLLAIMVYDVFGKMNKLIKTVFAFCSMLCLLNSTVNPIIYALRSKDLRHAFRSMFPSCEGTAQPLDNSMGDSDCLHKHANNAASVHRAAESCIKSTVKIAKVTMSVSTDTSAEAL

`CC(C)(C)c1nc(N2CCC(F)(F)C2)c2ccn(Cc3cccc(Cl)c3Cl)c2n1` [Example 5, 2-tert-butyl-7-[(2,3-dichlorophenyl)methyl]-4-(3,3-difluoropyrrolidin-1-yl) pyrrolo[2,3-d]pyrimidine]: the results for the concentration for a half-maximal effect (EC50) in test [1] and in test [2] were over 10 µM and 0.0125 µM, respectively.

Regarding `CC(=O)OC1CCN(c2nc(C(C)(C)C)nc3c2ccn3Cc2nonc2C)C1` (stereo not shown) [Example 37, [1-[2-tert-butyl-7-[(4-methyl-1,2,5-oxadiazol-3-yl)methyl]pyrrolo[2,3-d]pyrimidin-4-yl]pyrrolidin-3-yl]acetate], the EC50 in test [1] was over 10 µM; in test [2] it was 0.0887 µM.

Regarding `CC(C)(C)c1nc(N2CC3(COC3)C2)c2ccn([C@@H]3CCOC3)c2n1` [Example 17, 6-[2-tert-butyl-7-[(3R)-oxolan-3-yl]pyrrolo[2,3-d]pyrimidin-4-yl]-2-oxa-6-azaspiro[3.3]heptane], the EC50 in test [1] was over 10 µM; in test [2], 0.0618 µM.

With `CC(C)(C)c1nc(N2CC[C@H](O)C2)c2ccn(Cc3cccnc3Cl)c2n1` [Example 46, (3S)-1-[2-tert-butyl-7-[(2-chloropyridin-3-yl)methyl]pyrrolo[2,3-d]pyrimidin-4-yl]pyrrolidin-3-ol], the half-maximal effective concentration (EC50) in test [1] was over 10 µM; in test [2], 0.0051 µM.

With `CC(C)(C)c1nc(N2CCC(O)C2)c2ccn(Cc3ccccc3S(C)(=O)=O)c2n1` (stereo not shown) [Example 26, 1-[2-tert-butyl-7-[(2-methylsulfonylphenyl)methyl]pyrrolo[2,3-d]pyrimidin-4-yl]pyrrolidin-3-ol], the EC50 in test [1] was over 10 µM; in test [2] it was 0.0168 µM.

For the molecule `Cc1nnc(Cn2ccc3c(N4CCC(F)(F)C4)nc(C(C)(C)C)nc32)o1` [Example 10, 2-[[2-tert-butyl-4-(3,3-difluoropyrrolidin-1-yl)pyrrolo[2,3-d]pyrimidin-7-yl]methyl]-5-methyl-1,3,4-oxadiazole], the EC50 is over 10 µM in test [1] and 0.0296 µM in test [2].

Consider `CC(=O)OC1CCN(c2nc(C(C)(C)C)nc3c2ccn3Cc2nnnn2C)C1` (stereo not shown) [Example 35, [1-[2-tert-butyl-7-[(1-methyltetrazol-5-yl)methyl]pyrrolo[2,3-d]pyrimidin-4-yl]pyrrolidin-3-yl]acetate], for which the EC50 in test [1] is over 10 µM; in test [2] (setting [3]), 0.278 µM.

As to `CC(C)(C)c1nc(N2CCC(O)C2)c2ccn(Cc3ccccc3C(F)(F)F)c2n1` (stereo not shown) [Example 27, 1-[2-tert-butyl-7-[[2-(trifluoromethyl)phenyl]methyl]pyrrolo[2,3-d]pyrimidin-4-yl]pyrrolidin-3-ol], the EC50 in test [1] is over 10 µM; in test [2] it was 0.0069 µM.

With `CC(C)(C)c1nc(N2CCC(F)(F)C2)c2ccn(Cc3ccccc3C(F)(F)F)c2n1` [Example 4, 2-tert-butyl-4-(3,3-difluoropyrrolidin-1-yl)-7-[[2-(trifluoromethyl)phenyl]methyl]pyrrolo[2,3-d]pyrimidine], the EC50 was over 10 µM in test [1] and 0.0074 µM in test [2].

With `Cc1nonc1Cn1ccc2c(N3CCC(O)C3)nc(C(C)(C)C)nc21` (stereo not shown) [Example 32, 1-[2-tert-butyl-7-[(4-methyl-1,2,5-oxadiazol-3-yl)methyl]pyrrolo[2,3-d]pyrimidin-4-yl]pyrrolidin-3-ol], the concentration giving a half-maximal response (EC50) in test [1] is over 10 µM; in test [2] it was 0.0189 µM.

Take `CC(C)(C)c1nc(N2CCC(O)C2)c2ccn([C@@H]3CCOC3)c2n1` (stereo partly drawn) [Example 39, 1-[2-tert-butyl-7-[(3R)-oxolan-3-yl]pyrrolo[2,3-d]pyrimidin-4-yl]pyrrolidin-3-ol]: the results for the EC50 in test [1] and in test [2] were over 10 µM and 0.035 µM, respectively.

Consider `Cc1nnc(Cn2ccc3c(N4CCC(F)(F)C4)nc(C(C)(C)C)nc32)n1C` [Example 11, 2-tert-butyl-4-(3,3-difluoropyrrolidin-1-yl)-7-[(4,5-dimethyl-1,2,4-triazol-3-yl)methyl]pyrrolo[2,3-d]pyrimidine], for which the EC50 in test [1] was over 10 µM; in test [2], 0.0308 µM.

With `CC(C)(C)c1nc(N2CCC(F)(F)C2)c2ccn(Cc3ncccc3Cl)c2n1` [Example 7, 2-tert-butyl-7-[(3-chloropyridin-2-yl)methyl]-4-(3,3-difluoropyrrolidin-1-yl)pyrrolo[2,3-d]pyrimidine], the values for the 50% effective concentration (EC50) in test [1] and in test [2] were over 10 µM and 0.0042 µM, respectively.

As for `CC(C)(C)c1nc(N2CCC(F)(F)C2)c2ccn(Cc3c[nH]nc3C(F)(F)F)c2n1` [Example 41, 2-tert-butyl-4-(3,3-difluoropyrrolidin-1-yl)-7-[[3-(trifluoromethyl)-1H-pyrazol-4-yl]methyl]pyrrolo[2,3-d]pyrimidine], the figures for the EC50 in test [1] and in test [2] were 1.84 µM and 0.0135 µM, respectively.

For the molecule `Cn1nnnc1Cn1ccc2c(N3CC4(COC4)C3)nc(C(C)(C)C)nc21` [Example 50, 6-[2-tert-butyl-7-[(1-methyltetrazol-5-yl)methyl]pyrrolo[2,3-d]pyrimidin-4-yl]-2-oxa-6-azaspiro[3.3]heptane], the 50% effective concentration (EC50) is over 10 µM in test [1] and 0.531 µM in test [2] (setting [3]).

`CC(C)(C)c1nc(N2CC3(COC3)C2)c2ccn(Cc3ccccc3S(C)(=O)=O)c2n1` [Example 19, 6-[2-tert-butyl-7-[(2-methylsulfonylphenyl)methyl]pyrrolo[2,3-d]pyrimidin-4-yl]-2-oxa-6-azaspiro[3.3]heptane]: the EC50 was over 10 µM in test [1] and 0.0146 µM in test [2].

For `Cn1nnnc1Cn1ccc2c(N3CCC(F)(F)C3)nc(C(C)(C)C)nc21` [Example 12, 2-tert-butyl-4-(3,3-difluoropyrrolidin-1-yl)-7-[(1-methyltetrazol-5-yl)methyl]pyrrolo[2,3-d]pyrimidine], the results for the 50% effective concentration (EC50) in test [1] and in test [2] were over 10 µM and 0.014 µM, respectively.

Consider `CC(C)(C)c1nc(N2CC3(COC3)C2)c2ccn(Cc3ccc(F)cc3Cl)c2n1` [Example 18, 6-[2-tert-butyl-7-[(2-chloro-4-fluorophenyl)methyl]pyrrolo[2,3-d]pyrimidin-4-yl]-2-oxa-6-azaspiro[3.3]heptane], for which the EC50 is over 10 µM in test [1] and 0.0425 µM in test [2].

Turning to `CC(C)(C)c1nc(N2CC[C@H](O)C2)c2ccn(Cc3ccccc3S(C)(=O)=O)c2n1` [Example 45, (3S)-1-[2-tert-butyl-7-[(2-methylsulfonylphenyl)methyl]pyrrolo[2,3-d]pyrimidin-4-yl]pyrrolidin-3-ol], the concentration giving a half-maximal response (EC50) in test [1] was over 10 µM; in test [2], 0.0042 µM.

For `CC(C)(C)c1nc(N2CC3(COC3)C2)c2ccn(Cc3cccnc3Cl)c2n1` [Example 20, 6-[2-tert-butyl-7-[(2-chloropyridin-3-yl)methyl]pyrrolo[2,3-d]pyrimidin-4-yl]-2-oxa-6-azaspiro[3.3]heptane], the EC50 in test [1] is over 10 µM; in test [2] it was 0.0242 µM.

`CC(C)(C)c1nc(N2CCC(O)C2)c2ccn(Cc3cccnc3Cl)c2n1` (stereo not shown) [Example 29, 1-[2-tert-butyl-7-[(2-chloropyridin-3-yl)methyl]pyrrolo[2,3-d]pyrimidin-4-yl]pyrrolidin-3-ol]: the EC50 in test [1] was over 10 µM; in test [2], 0.0036 µM.

On to `CC(C)(C)c1nc(N2CC3(COC3)C2)c2ccn(Cc3cccc(Cl)c3Cl)c2n1` [Example 21, 6-[2-tert-butyl-7-[(2,3-dichlorophenyl)methyl]pyrrolo[2,3-d]pyrimidin-4-yl]-2-oxa-6-azaspiro[3.3]heptane], for which the EC50 was over 10 µM in test [1] and 0.0914 µM in test [2].

Take `CC(C)(C)c1nc(N2CCC(F)(F)C2)c2ccn(Cc3ccccc3S(C)(=O)=O)c2n1` [Example 3, 2-tert-butyl-4-(3,3-difluoropyrrolidin-1-yl)-7-[(2-methylsulfonylphenyl)methyl]pyrrolo[2,3-d]pyrimidine]: the EC50 in test [1] was over 10 µM; in test [2] it was 0.0116 µM.

On to `CC(C)(C)c1nc(N2CCC(O)C2)c2ccn(Cc3ccc(F)cc3Cl)c2n1` (stereo not shown) [Example 25, 1-[2-tert-butyl-7-[(2-chloro-4-fluorophenyl)methyl]pyrrolo[2,3-d]pyrimidin-4-yl]pyrrolidin-3-ol], for which the 50% effective concentration (EC50) came to 0.895 µM in test [1] and 0.0102 µM in test [2].

As for `CC(C)(C)c1nc(N2CC3(COC3)C2)c2ccn(Cc3ncccc3Cl)c2n1` [Example 49, 6-[2-tert-butyl-7-[(3-chloropyridin-2-yl)methyl]pyrrolo[2,3-d]pyrimidin-4-yl]-2-oxa-6-azaspiro[3.3]heptane], the EC50 in test [1] is 0.307 µM; in test [2], 0.0107 µM.

Regarding `CC(C)(C)c1nc(N2CC[C@H](O)C2)c2ccn(Cc3ncccc3Cl)c2n1` [Example 47, (3S)-1-[2-tert-butyl-7-[(3-chloropyridin-2-yl)methyl]pyrrolo[2,3-d]pyrimidin-4-yl]pyrrolidin-3-ol], the EC50 is over 10 µM in test [1] and 0.0058 µM in test [2].

The values above are taken from US9580435B2, “Pyrrolo[2,3-D]pyrimidine derivatives as CB2 receptor agonists” (priority 2013, dated 2017).
